In patent US9855239B2, “Methods for the treatment and prevention of age-related retinal dysfunction” (University of Washington, priority 2008, dated 2018):
“Also recorded” adds a separate entry of the source.

Assays:
[1] = system: C57BL/6 female mice; assay: Single flash ERG analyses after long-term treatment; format: in vivo, mouse; conditions: for a- and b-wave amplitudes, scotopic and photopic single flash ERG: 80 mg/kg
From the text: To evaluate the effects of rod- and cone-mediated light responses after long-term 9-cis-R-Ac treatments, mice were examined by non-invasive ERG methods. The first set of analyses was done at 4 and 10 months of age. Under scotopic conditions, the amplitudes of a-waves decreased with age, especially at high flash intensities (C1 versus C0 group, FIG. 4A, left top panel), whereas the changes in b-waves were less evident (FIG. 4A, right top panel).
The second set of analyses was done at 14 months of age.
Six groups of mice were studied (FIG. 1B).
Two weeks after the last gavage with either, 9-cis-R-Ac, all-trans-R-Ac or vehicle, groups of 48 hr dark-adapted mice were analyzed for recovery of dark adaptation after light exposure, purified rhodopsin/opsin and retinoids in the eye and retinal morphology (FIG. 1C; Methods). Mice were exposed to light of intensity 500 cd·m^−2 that bleached ˜90% of rhodopsin, anesthetized and monitored by ERG for one hr to evaluate recovery of dark adaptation. Rhodopsin was purified and rhodopsin/opsin ratios was determined. Retinoid analyses were performed on dissected eyes removed at 0, 10, 30, and 60 min after exposure to the same amount of light. Mice used to evaluate retinal morphology were not exposed to photobleaching prior to analysis.
(§1) ERGs of anesthetized mice were recorded as previously reported.

[2] = molecular target: T1, rhodopsin/opsin (Mus musculus, UniProt P15409); assay: Rhodopsin regeneration ratio of immunoaffinity-purified rhodopsin/opsin, single dose; format: in vivo
T1 construct: from tissue; host or cells: whole eyes of wild-type C57BL/6 female mice
Method: (§2) Forty eight hr dark-adapted, 10-month-old mice were gavaged with a single dose (˜80 mg/kg body weight) of 9-cis-R-Ac or control vehicle and exposed to strong illumination for 20 min (500 cd·m^−2 that bleached ˜90% rhodopsin). Next, mice were dark-adapted for 16 hr after which various analyses were performed (FIG. 1A). […] To investigate whether 9-cis-retinal was utilized to form isorhodopsin and to assess how much unliganded opsin was present in the mouse eyes, rhodopsin, isorhodopsin and opsin were purified by immunoaffinity chromatography from treated and control groups of mice. […] After bleaching, 9-cis-retinal is bound to opsin even in the presence of a functional retinoid cycle that produces 11-cis-retinal to regenerate rhodopsin. Eyes from non-bleached or bleached and dark-adapted untreated mice contained a small amount of free opsin.
9-cis-R-Ac was prepared as previously described (Batten, M. L., et al. PLoS medicine 2, e333 (2005); Batten, M. L., et al. J Biol Chem 279, 10422-10432 (2004)). A dose of ˜80 mg/kg body weight of 9-cis-R-Ac in 150 μl vegetable oil was administered via gavage to each treated animal. Prior to single dose experiments (FIG. 1A, Table 1), 10-month-old mice were dark-adapted for more than 48 hr, gavaged with 9-cis-R-Ac or vehicle control solution 1 hr before bleaching, exposed to light for 20 min at 500 cd·m^−2 and dark-adapted for 16 hr before analysis.
Rhodopsin purification was done under dim red light as previously described (Zhu, L., et al. J Biot Chem, 279, 53828-53839 (2004)). […] Purified rhodopsin concentration was determined at 500 nm and total amount of opsin and rhodopsin at 280 nm with a Hewlett-Packard 8452A UV-visible spectrophotometer (Palczewski, K., Carruth, M. E., Adamus, G., McDowell, J. H. & Hargrave, P. A. Vision Research, 30, 1129-1137 (1990)). […]

[3] = system: C57BL/6 female mice; assay: Single-flash ERG after single dose treatment, bleach and dark adaptation; format: in vivo, mouse; conditions: single dose ~80 mg/kg gavage, 10-month-old mice, 20 min bleach at 500 cd·m^−2, 16 hr dark adaptation; vs control (a-waves P<0.01)
Method: as §2
9-cis-R-Ac was prepared as previously described (Batten, M. L., et al. PLoS medicine 2, e333 (2005); Batten, M. L., et al. J Biol Chem 279, 10422-10432 (2004)). A dose of ˜80 mg/kg body weight of 9-cis-R-Ac in 150 μl vegetable oil was administered via gavage to each treated animal. […]
as §1

[4] = Husbandry: activity, coat and skin appearance, body weight, tolerability
Method: (§3) Animals were evaluated weekly for activity and changes in coat and skin appearance.
(§4) For the long-term study (FIGS. 1B and 1C, Table 1), mice were obtained at 3 months of age and raised until 4 months of age before the experiments were initiated. Mice then were gavaged with 9-cis-R-Ac or vehicle solution once a month for different durations. Six groups of mice were studied (FIG. 1B). The first 3 groups (C0 C1 and C2, total n=35 for each group) were treated as controls and tested at 4, 10 and 14 months of age. The other 3 groups (N1, N2 and N3, n=35) were gavaged with 9-cis-R-Ac. Group N1 was gavaged for 6 months and tested at 10 months of age. Group N2 was gavaged with 9-cis-R-Ac for 10 months and tested at 14 months of age. Group N3, was gavaged with vehicle until 10 months of age and then received 9-cis-R-Ac monthly until testing at 14 months of age.

[5] = mouse, in vivo
Method: as §3, §4

T1 sequence (P15409 whole entry): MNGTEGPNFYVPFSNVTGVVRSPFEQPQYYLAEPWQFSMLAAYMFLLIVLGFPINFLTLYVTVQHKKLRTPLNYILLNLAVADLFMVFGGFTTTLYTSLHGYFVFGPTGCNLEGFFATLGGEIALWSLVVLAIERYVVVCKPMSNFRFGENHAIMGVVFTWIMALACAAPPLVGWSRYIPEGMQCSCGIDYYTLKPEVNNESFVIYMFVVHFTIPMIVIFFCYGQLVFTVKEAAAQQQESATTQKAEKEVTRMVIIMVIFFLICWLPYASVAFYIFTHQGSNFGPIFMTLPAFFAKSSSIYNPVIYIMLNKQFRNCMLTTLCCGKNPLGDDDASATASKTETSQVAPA

For CC(=O)OC/C=C(C)/C=C/C=C(C)\C=C\C1=C(C)CCCC1(C)C [9-cis-R-Ac, 9-cis-retinyl acetate], the “a- and b-wave amplitudes, scotopic and photopic single flash ERG” value ([1]; 10 months of age, monthly gavage ~80 mg/kg for 6 months (N1 vs C1), high flash strengths, except a-waves under photopic conditions) was “slight improvement; also recorded: significantly improved; also recorded: increased significantly”, the “sensitivities and maximal a-wave amplitudes estimated from a-wave maximal responses” value ([1]; 14 months of age, dark-adapted mice, treated vs control) was “not to be significantly different” and the “a- and b-wave amplitudes, scotopic and photopic single flash ERG” value ([1]; 14 months of age, monthly gavage ~80 mg/kg (9-cis-R-Ac: N2 and N3), vs control C2) was “No significant differences; also recorded: largely disappeared”. For the same compound, the “regeneration ratio of rhodopsin (absorbance 498 nm/280 nm)” value ([2]; single dose ~80 mg/kg gavage, 10-month-old mice, bleached, 16 hr dark-adapted, treated vs control, 80 mg/kg) was “significantly higher; also recorded: improved; also recorded: slightly higher”, the “9-cis-retinal extracted from purified proteins (bound chromophore)” value ([2]; single dose, samples from treated mice) was “a significant amount of 9-cis-retinal was detected” and the “total amount of purified protein” value ([2]; single dose, treated vs control) was “did not significantly differ”. The “functional a- and b-wave amplitudes, single-flash ERG” value [3] was “slightly increased”, the “activity and changes in coat and skin appearance” value ([4]; evaluated weekly during the experimental period) was “No changes” and the body weights ([4]; pre-treatment, 10 months and 14 months, control (C1-2) vs treated (N1-3)) was “no significant differences”. The “tolerability of long-term treatment” value [5] was “well tolerated”.
